Each compound was assayed against T1, MNK2 (Homo sapiens, UniProt Q9HBH9) (assay: Mnk2a in vitro kinase assay (indirect fluorescence polarization)). Details: pre-activated GST-Mnk2a 2.5 nM, 20 μM ATP, 30 μM substrate peptide.
T1 construct: the open reading frames of human Mnk1 and Mnk2a were amplified from cDNA; made in house; host or cells: E. coli BL21
T1 sequence (Q9HBH9 whole entry): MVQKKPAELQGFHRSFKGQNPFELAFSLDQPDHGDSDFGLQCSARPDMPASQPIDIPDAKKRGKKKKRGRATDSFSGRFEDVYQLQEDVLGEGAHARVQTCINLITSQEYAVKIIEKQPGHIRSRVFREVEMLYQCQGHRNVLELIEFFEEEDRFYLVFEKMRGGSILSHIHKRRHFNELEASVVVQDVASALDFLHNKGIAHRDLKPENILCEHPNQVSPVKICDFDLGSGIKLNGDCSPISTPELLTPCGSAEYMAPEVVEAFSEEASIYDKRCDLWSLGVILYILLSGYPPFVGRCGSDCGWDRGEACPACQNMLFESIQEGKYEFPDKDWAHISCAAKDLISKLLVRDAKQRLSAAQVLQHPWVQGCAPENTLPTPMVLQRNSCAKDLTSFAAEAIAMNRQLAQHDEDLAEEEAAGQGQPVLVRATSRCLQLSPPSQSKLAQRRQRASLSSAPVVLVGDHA
Format: biochemical
Outline: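 Human GST-Mnk2a was expressed in E. coli and activated in vitro with 150 nM pre-activated ERK2 and 50 μM ATP in HEPES pH 7.4/MgCl2 buffer (45 min, 30 °C). Activity on an eIF4E Ser209-derived 12mer peptide was read by competitive fluorescence polarization with a phospho-specific antibody.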
An IC50 of 0.008 µM was found for CO[C@H]1CCC[C@@H](Oc2cc(F)ccc2Nc2ncnc3sc(C(N)=O)c(C)c23)C1 (racemic) [Example 89, Racemic 4-[4-Fluoro-2-((cis)-3-methoxy-cyclohexyloxy)-phenylamino]-5-methyl-thieno[2,3-d]pyrimidine-6-carboxylic acid amide] in this work. An IC50 of 0.01 µM was found for Cc1c(C(=O)NCC#CCN(C)C)sc2ncnc(Nc3cccnc3O[C@H]3CC[C@H](O)CC3)c12 [Example 267] in this work. An IC50 of 0.017 µM was found for CO[C@H]1CC[C@H](Oc2cc(F)ccc2Nc2ncnc3sc(C(=O)NCC4CCCNC4)c(C)c23)CC1 (stereo partly drawn) [Example 200, 4-[4-Fluoro-2-(trans-4-methoxy-cyclohexyloxy)-phenylamino]-5-methyl-thieno[2,3-d]pyrimidine-6-carboxylic acid (piperidin-3-ylmethyl)-amide] in this work. An IC50 of 0.028 µM was found for CNC(=O)CNC(=O)c1sc2ncnc(Nc3ccc(F)cc3O[C@@H]3CCC[C@H](OC)C3)c2c1C (racemic) [Example 95] in this work. An IC50 of 0.01 µM was found for Cc1c(C(=O)NCCCN(C)C)sc2ncnc(Nc3ccc(F)cc3OC3CCC(O)C3)c12 (stereo not shown) [Example 226, N-(3-(dimethylamino)propyl)-4-(4-fluoro-2-(3-hydroxycyclopentyloxy)phenylamino)-5-methylthieno[2,3-d]pyrimidine-6-carboxamide] in this work. An IC50 of 0.031 µM was found for Cc1c(C(N)=O)sc2ncnc(Nc3ccc(F)cc3OC3CCC4(CC3)OCCO4)c12 [Example 19, 4-(2-(1,4-Dioxaspiro[4.5]decan-8-yloxy)-4-fluorophenylamino)-5-methylthieno[2,3-d]pyrimidine-6-carboxamide] in this work. An IC50 of 0.019 µM was found for CO[C@H]1CCC[C@@H](Oc2ncccc2Nc2ncnc3sc(C(=O)NCc4cn(C)cn4)c(C)c23)C1 (racemic) [Example 128] in this work. An IC50 of 0.125 µM was found for CO[C@@H]1CCC[C@@H](Oc2ncccc2Nc2ncnc3sc(C(=O)N[C@H]4CC[C@H](O)CC4)c(C)c23)C1 (racemic) [Example 142] in this work. An IC50 of 0.038 µM was found for CO[C@H]1CC[C@H](Oc2cc(F)ccc2Nc2ncnc3sc(C(=O)NCC(C)O)c(C)c23)CC1 (stereo partly shown) [Example 184] in this work. An IC50 of 0.031 µM was found for COC1CCCC(Oc2cc(F)ccc2Nc2ncnc3sc(C(=O)NCC#CCN)c(C)c23)C1 (stereo not shown) [Example 80] in this work. An IC50 of 2.5 µM was found for CC(=O)N(C)[C@H]1CC[C@@H](Oc2cc(F)ccc2Nc2ncnc3sc(C(N)=O)c(C)c23)CC1 [Example 10] in this work. An IC50 of 0.004 µM was found for CCCCNC(=O)c1sc2ncnc(Nc3cccnc3O[C@H]3CC[C@H](N)CC3)c2c1C [Example 286] in this work. An IC50 of 0.016 µM was found for Cc1c(C(=O)NCC#CCN(C)C)sc2ncnc(Nc3ccc(F)cc3O[C@@H]3CCC[C@@H](O)C3)c12 (racemic) [Example 65] in this work. An IC50 of 0.14 µM was found for CO[C@H]1CCCC[C@@H]1Oc1cc(F)ccc1Nc1ncnc2sc(C(N)=O)c(C)c12 [Example 42, 4-[4-Fluoro-2-((1S,2S)-2-methoxy-cyclohexyloxy)-phenylamino]-5-methyl-thieno[2,3-d]pyrimidine-6-carboxylic acid amide] in this work. An IC50 of 0.01 µM was found for Cc1c(C(N)=O)sc2ncnc(Nc3ccc(F)cc3O[C@H]3CC[C@H](NS(C)(=O)=O)CC3)c12 [Example 3, 4-[4-Fluoro-2-(trans-4-methanesulfonylamino-cyclohexyloxy)-phenylamino]-5-methyl-thieno[2,3-d]pyrimidine-6-carboxylic acid amide] in this work. An IC50 of 0.007 µM was found for CN[C@H]1CC[C@H](Oc2cc(F)ccc2Nc2ncnc3sc(C(N)=O)c(C)c23)CC1 [Example 12, 4-(4-Fluoro-2-(trans-4-(methylamino)cyclohexyloxy)phenylamino)-5-methylthieno[2,3-d]pyrimidine-6-carboxamide] in this work. An IC50 of 0.009 µM was found for COC(=O)c1sc2ncnc(Nc3cccnc3O[C@@H]3CCC[C@H](OC)C3)c2c1C (racemic) [Example 110.1, Racemic 4-[2-((cis)-3-Methoxy-cyclohexyloxy)-pyridin-3-ylamino]-5-methyl-thieno[2,3-d]pyrimidine-6-carboxylic acid methylester] in this work. An IC50 of 0.011 µM was found for COC1CCCC(Oc2ncccc2Nc2ncnc3sc(C(=O)NCC4CNCCO4)c(C)c23)C1 (mixture of isomers) [Example 119] in this work. An IC50 of 0.038 µM was found for COC1CCCC(Oc2cc(F)ccc2Nc2ncnc3sc(C(=O)NCCCN4CCCC4)c(C)c23)C1 (stereo not shown) [Example 87] in this work. An IC50 of 0.069 µM was found for CCNC(=O)c1sc2ncnc(Nc3ccc(F)cc3O[C@H]3C[C@H](NC(C)=O)C3)c2c1C [Example 37] in this work. An IC50 of 0.013 µM was found for Cc1c(C(=O)NCCCn2ccnc2)sc2ncnc(Nc3ccc(F)cc3O[C@H]3CC[C@H](O)CC3)c12 [Example 156] in this work. An IC50 of 0.006 µM was found for Cc1c(C(N)=O)sc2ncnc(Nc3cccnc3O[C@H]3CC[C@H](N)CC3)c12 [Example 283, 4-[2-(4-Amino-cyclohexyloxy)-pyridin-3-ylamino]-5-methyl-thieno[2,3-d]pyrimidine-6-carboxylic acid amide] in this work. An IC50 of 0.019 µM was found for Cc1c(C(=O)NCCO)sc2ncnc(Nc3cccnc3O[C@H]3CC[C@H](N)CC3)c12 [Example 288] in this work. An IC50 of 0.05 µM was found for CO[C@H]1CCC[C@@H](Oc2cc(F)ccc2Nc2ncnc3sc(C(=O)NCCN4CCCCC4)c(C)c23)C1 (racemic) [Example 103] in this work. An IC50 of 0.041 µM was found for CO[C@H]1CCC[C@@H](Oc2ncccc2Nc2ncnc3sc(C(=O)N[C@H]4CC[C@H](O)CC4)c(C)c23)C1 (racemic) [Example 121] in this work. An IC50 of 0.009 µM was found for COC(=O)c1sc2ncnc(Nc3ccc(F)cc3OC3C[C@@H](O)C[C@H](O)C3)c2c1C (relative stereo) [Example 30.1] in this work. An IC50 of 0.004 µM was found for CC(=O)N[C@H]1CC[C@H](Oc2cc(F)ccc2Nc2ncnc3sc(C(N)=O)c(C)c23)C1 [Example 230, 4-[2-((1S,3S)-3-Acetylamino-cyclopentyloxy)-4-fluoro-phenylamino]-5-methyl-thieno[2,3-d]pyrimidine-6-carboxylic acid amide] in this work. An IC50 of 0.091 µM was found for COC1CCCC(Oc2cc(F)ccc2Nc2ncnc3sc(C(=O)NCC4COCCN4)c(C)c23)C1 (stereo not shown) [Example 84] in this work. An IC50 of 0.053 µM was found for CO[C@H]1C[C@@H](Oc2cc(F)ccc2Nc2ncnc3sc(C(N)=O)c(C)c23)C[C@H]1OC [Example 216] in this work. An IC50 of 0.04 µM was found for CC(=O)N[C@H]1C[C@H](Oc2cc(F)ccc2Nc2ncnc3sc(C(=O)NC4CCN(C)CC4)c(C)c23)C1 [Example 40] in this work. An IC50 of 0.175 µM was found for Cc1c(C(=O)NCCCN2CCCC2)sc2ncnc(Nc3ccc(F)cc3OC3CCCCC3O)c12 (stereo not shown) [Example 263] in this work. An IC50 of 0.016 µM was found for Cc1c(C(=O)NCCCO)sc2ncnc(Nc3ccc(F)cc3O[C@H]3CC[C@H](O)CC3)c12 [Example 172] in this work. An IC50 of 0.009 µM was found for CNC(=O)c1sc2ncnc(Nc3cccnc3O[C@H]3CC[C@H](N)CC3)c2c1C [Example 285] in this work. An IC50 of 0.014 µM was found for CCNC(=O)c1sc2ncnc(Nc3ccc(F)cc3O[C@H]3CC[C@H](O)CC3)c2c1C [Example 173] in this work. An IC50 of 0.015 µM was found for CO[C@@H]1CCC[C@@H](Oc2cc(F)ccc2Nc2ncnc3sc(C(N)=O)c(C)c23)C1 (racemic) [Example 79, Racemic 4-[4-Fluoro-2-((trans)-3-methoxy-cyclohexyloxy)-phenylamino]-5-methyl-thieno[2,3-d]pyrimidine-6-carboxylic acid amide] in this work. An IC50 of 0.037 µM was found for COC(=O)c1sc2ncnc(Nc3ccc(F)cc3OC3CCC(C)(C)CC3)c2c1C [Example 31.1] in this work. An IC50 of 0.255 µM was found for Cc1c(C(=O)NCCCN2CCCC2)sc2ncnc(Nc3ccc(F)cc3OC3CCCCC3O)c12 (single isomer, unassigned) [Example 260] in this work.

— patent publication US8754079B2, “Cycloalkyl containing thienopyrimidines for pharmaceutical compositions” (Boehringer Ingelheim International GmbH, priority 2010, dated 2014)
